From ChEMBL document CHEMBL5370662, “Reactive Oxygen Species-Activated Metal-Free Carbon Monoxide Prodrugs for Targeted Cancer Treatment” (J Med Chem, 2023)
Blank lines part the entries; values can stand above or below the compound they belong to. The source made the active and inactive calls. The calls are words filed in the database; no cut-off is given here.

Legend:
[1] = Prodrug conversion in PBS buffer assessed as formation of 3',6'-dimethyl-[1,1':2',1''-terphenyl]-4'-carbonitrile by measuring half life at pH 7.4 at 25 uM measured after 24 hrs in presence of H2O2 by HPLC analysis; assay type: ADME; conditions: pH 7.4, 24 h
[2] = Prodrug conversion in PBS buffer assessed as formation of oxidized intermediate by measuring half life at pH 7.4 at 25 uM measured after 24 hrs in presence of H2O2 by HPLC analysis; assay type: ADME; conditions: pH 7.4, 24 h
[3] = Prodrug conversion in PBS buffer assessed as carbon monoxide release by measuring half life at pH 7.4 at 25 uM in presence of H2O2 by HPLC analysis; assay type: ADME; conditions: pH 7.4, 25 µM
[4] = Prodrug conversion in PBS buffer assessed as carbon monoxide release by measuring half life at pH 7.4 at 25 uM by HPLC analysis; assay type: ADME; conditions: pH 7.4, 25 µM
Panc02 [5] = assay: Antiproliferative activity against Panc02 cells assessed as inhibition of cell growth measured after 24 hrs by Cell Counting Kit-8 assay; assay type: functional, cell-based; conditions: Mus musculus
[6] = Toxicity in Balb/c mouse implanted with mouse 4T1 cells assessed as change in body weight at 10 mg/kg, iv administered on day 0,3, and 5 measured after 24 days; assay type: organism-based; conditions: in vivo, 576 h, time 24 day
4T1 [7] = assay: Antiproliferative activity against mouse 4T1 cells assessed as inhibition of cell growth measured after 24 hrs by Cell Counting Kit-8 assay; assay type: functional, cell-based; conditions: for IC50: 4T1, 24 h
[8] = Prodrug conversion in Balb/c mouse implanted with mouse 4T1 cells assessed as carbon monoxide release in tumor by measuring red fluorescence at 10 mg/kg, iv incubated for 6 hrs followed by 1-Ac probe addition by hoechst dye based confocal laser scanning microscopic analysis; assay type: ADME, organism-based; conditions: in vivo
4T1 [9] = assay: Antitumor activity against mouse 4T1 cells implanted in Balb/c mouse assessed as fold change in tumor volume at 10 mg/kg, iv administered on day 0,3, and 5 measured after 24 days (reference value: 25.5); assay type: functional; conditions: for fold change (FC): time 24 day; for Activity: time 24.0 day
[10] = Prodrug conversion in 1-Ac probed mouse 4T1 cells assessed as carbon monoxide release by measuring red fluorescence at 20 uM incubated for 6 hrs by hoechst dye based confocal laser scanning microscopic analysis; assay type: ADME, cell-based; conditions: 4t1, 6 h
[11] = Toxicity in Balb/c mouse implanted with mouse 4T1 cells assessed as increase in survival rate at 10 mg/kg, iv administered on day 0,3, and 5 measured after 24 days (reference value: 27 days); assay type: organism-based; conditions: in vivo, 576 h, time 24 day
Panc02 [12] = assay: Antiproliferative activity against Panc02 cells assessed as inhibition of cell growth upto 100 uM measured after 24 hrs by Cell Counting Kit-8 assay; assay type: functional, cell-based; conditions: Mus musculus
4T1 [13] = assay: Antiproliferative activity against mouse 4T1 cells assessed as inhibition of cell growth upto 100 uM measured after 24 hrs by Cell Counting Kit-8 assay; assay type: functional, cell-based

Compound: CCCCCS[C@H]1C(C=O)[C@]2(C)C(=O)[C@]1(C)C(c1ccccc1)=C2c1ccccc1 (stereo partly specified)
IC50 (Panc02 [5]; Panc02, 24 h): 72.5 µM
t1/2 [3]: 3.4 h
Activity [6]: Non-Toxic
IC50 (4T1 [7]): 29.4 µM
Drug metabolism [8]: Metabolite_Detected
fold change (FC) (4T1 [9]): 9.4
Drug metabolism [10]: Metabolite_Detected
t1/2 [4]: 81.6 h
Survival [11]: 42 days

Compound: Cc1cc(C#N)c(C)c(-c2ccccc2)c1-c1ccccc1
Activity (Panc02 [12]): inactive
Activity (4T1 [13]): inactive
Activity (4T1 [9]): inactive

Compound: Cc1cc(C=O)c(C)c(-c2ccccc2)c1-c1ccccc1
Activity (Panc02 [5]): inactive
Activity (4T1 [7]): inactive
Activity (4T1 [9]): inactive

Further lines, with some results ahead:

t1/2 [1]: 12 h
t1/2 [2]: 2 h
Compound: Cc1ccc(S[C@H]2C(C#N)[C@]3(C)C(=O)[C@]2(C)C(c2ccccc2)=C3c2ccccc2)cc1 (stereo partly specified)

t1/2 [3]: 2.2 h
t1/2 [4]: 3 h
Compound: Cc1ccc(S[C@H]2C(C=O)[C@]3(C)C(=O)[C@]2(C)C(c2ccccc2)=C3c2ccccc2)cc1 (stereo partly specified)

IC50 (4T1 [7]): > 100 µM
Drug metabolism [8]: Metabolite_Detected
Drug metabolism [10]: Metabolite_Detected
t1/2 [1]: 12 h
t1/2 [2]: 2 h
Compound: CCCCCS[C@H]1C(C#N)[C@]2(C)C(=O)[C@]1(C)C(c1ccccc1)=C2c1ccccc1 (stereo partly specified)
Activity (Panc02 [12]): inactive
fold change (FC) (4T1 [9]): 16.5

Drug metabolism [8]: Metabolite_Notdetected
Drug metabolism [10]: Metabolite_Notdetected
Compound: CCCCCS[C@H]1C(C(=O)OC)[C@]2(C)C(=O)[C@]1(C)C(c1ccccc1)=C2c1ccccc1 (stereo partly specified)
Activity (Panc02 [5]): inactive
Activity (4T1 [7]): inactive
Activity (4T1 [9]): inactive
